Patent US5120752A, “Cyclopropyl derivative lipoxygenase inhibitors” (Abbott Laboratories, priority 1990, dated 1992)

Experiments:
[1] = system: LTB4 biosynthesis in human whole blood; test: Inhibition of calcium ionophore-induced LTB4 biosynthesis in human whole blood; format: cell-based; conditions: A23187 50 μM, 15 min preincubation, read-out: Inhibition of Leukotriene Biosynthesis IC50
Experimental: Inhibition of leukotriene biosynthesis was evaluated in an assay, involving calcium ionophore-induced LTB4 biosynthesis expressed by human whole blood. Heparinized (20 U/mL) human blood (0.3 mL) was preincubated with test compound or vehicle for 15 min. at 37° C. Eicosanoid biosynthesis was initiated by adding calcium ionophore (A23187) in DMSO to a final concentration of 50 μM and terminated after 30 min. by rapid cooling of the blood in an ice bath and centrifuging at 3° C. for 10 min at 2500×g. The plasma was mixed with 4 volumes of methanol and allowed to stand for at least 30 min. at 3° C. prior to centrifuging at 1800×g for 10 min. The level of LTB4 in aliquots of the methanol-plasma extract was analyzed by radio-immunoassay or enyme-immunoassay techniques.

leukotriene biosynthesis = test: Inhibition of leukotriene biosynthesis in vivo after oral administration, rat peritoneal anaphylaxis model; conditions: 100 μmol/kg oral (gavage), 1 h before antigen challenge, read-out: % Inhibition of Leukotrienes at 100 μmol/kg oral dose
Experimental: Inhibition of the biosynthesis of leukotrienes in vivo after oral administration of representative test compounds of this invention was determined using a rat peritoneal anaphylaxis model in a similar manner as that described by Young and coworkers (Young, P. R.; Dyer, R. D.; Carter, G. W. Fed. Proc., Fed. Am. Soc. Exp. Biol. 1985, 44, 1185). In this model rats were injected intraperitoneally (ip) with rabbit antibody to bovine serum albumin (BSA) and three hours later injected ip with BSA to induce an antgen-antibody response. Rats were sacrificed 15 minutes after this challenge and the peritoneal fluids were collected and analyzed for leukotriene levels. Test compounds were administered by gavage one hour prior to the antigen challenge. Percent inhibition values were determined by comparing the treatment group to the mean of the control group. The results of this assay, for representative compounds of the present invention, at an oral dose level of […] are presented in Table 2, and at an oral dose of […] in Table 3.

Structure (SMILES)	IC50 [1]	inhibition in vivo at 100 µmol/kg (leukotriene biosynthesis)
CC([C@@H]1C[C@H]1c1ccsc1)N(O)C(N)=O (stereo partly drawn) [Example 189, N-(1-trans-(2-(3-thienyl)cyclopropyl)ethyl)-N-hydroxyurea]	680 nM	73%
CC([C@@H]1C[C@H]1c1ccoc1)N(O)C(N)=O (stereo partly drawn) [Example 192, N-(1-trans-(2-(3-furanyl)cyclopropyl)ethyl)-N-hydroxyurea]	1200 nM	71%
